According to PubChem BioAssay (NCI):
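48-hour exposure; five concentrations; linearly interpolated endpoints. TGI denotes the concentration required for complete inhibition of growth.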

Key:
Assay in all cases: DTP human tumour cell line panel, 48 h
IGROV1 ovarian = test system: IGROV1 ovarian
RXF 393 renal = test system: RXF 393 renal
SNB-75 CNS = test system: SNB-75 CNS
K-562 leukemia = test system: K-562 leukemia
SF-295 CNS = test system: SF-295 CNS
UO-31 renal = test system: UO-31 renal
MDA-MB-435 = test system: MDA-MB-435
HOP-62 NSCLC = test system: HOP-62 NSCLC
DU-145 prostate = test system: DU-145 prostate
RPMI-8226 leukemia = test system: RPMI-8226 leukemia
OVCAR-4 ovarian = test system: OVCAR-4 ovarian
EKVX NSCLC = test system: EKVX NSCLC
TK-10 renal = test system: TK-10 renal
UACC-257 melanoma = test system: UACC-257 melanoma
HCC-2998 colon = test system: HCC-2998 colon

Row | Structure (SMILES) | TGI (IGROV1 ovarian) [µM] | TGI (RXF 393 renal) [µM] | TGI (SNB-75 CNS) [µM] | TGI (K-562 leukemia) [µM] | TGI (SF-295 CNS) [µM] | TGI (UO-31 renal) [µM] | TGI (MDA-MB-435) [µM] | TGI (HOP-62 NSCLC) [µM] | TGI (DU-145 prostate) [µM] | TGI (RPMI-8226 leukemia) [µM] | TGI (OVCAR-4 ovarian) [µM] | TGI (EKVX NSCLC) [µM] | TGI (TK-10 renal) [µM] | TGI (UACC-257 melanoma) [µM] | TGI (HCC-2998 colon) [µM]
1 | Nc1nc(SCc2ccccc2[N+](=O)[O-])c2[nH]cnc2n1 | > 68.4 | > 94 | > 70.4 | > 100 | > 100 | > 100 | > 100 | > 100 | > 100 | > 100 | > 100 | > 100 | > 62.7 | > 75.9 | 97.4
2 | CCOc1ccc(-n2c(=O)n3c(Nc4ccc(Cl)cc4)nc4c(c(=O)n(C)c(=O)n4C)n3c2=O)cc1 | > 100 | 43.2 | 69.1 | 84 | > 100 | > 100 | 39.7 | > 100 | > 100 | 61.4 | > 100 | 89.6 | 66 | 60.4 | 34.4
3 | Cc1cc2nc(NS(=O)(=O)c3cc(C)c(Cl)cc3S)[nH]c2cc1C | > 100 | > 100 | > 100 | > 100 | > 100 | > 100 | > 100 | > 100 | > 100 | > 100 | > 100 | > 100 | > 100 | > 100 | > 100
4 | CC1(C)N=C(/C(C#N)=[N+](/[O-])C(=O)c2ccccc2)C(C)(C)N1O | > 100 | > 100 | > 100 | > 100 | > 100 | > 100 | > 100 | > 100 | > 100 | > 100 | > 100 | > 100 | > 100 | > 100 | > 100
5 | O=C1CSC(c2c(O)ccc3ccccc23)N1n1c(=S)[nH]nc(/C=C/c2c(O)ccc3ccccc23)c1=O (stereo not given) | 26.7 | 13.7 | 11.4 | 19.3 | 37.2 | 15.1 | 14.9 | 22 | 15.3 | 17.4 | 40.3 | 51.3 | 28.2 | 14.3 | 22
6 | CC1(C)CC(=O)C2=C(C1)N(c1ccccc1)C1(O)C=CC(=O)C3=C(O)c4ccccc4C(=O)C321 (stereo not given) | 75.5 | 39.6 | 48.6 | > 100 | > 100 | 47 | 54 | > 100 | > 100 | > 100 | 43.9 | > 100 | 52.2 | > 100 | 78.2
7 | CN1CCN(CCCCNc2cc3c4ccccc4c(NCCCCN4CCN(C)CC4)cc3c3ccccc23)CC1 | 5.52 | 3.13 | 7.8 | 6.8 | 3.77 | 11.8 | 0.359 | 7.72 | 3.14 | 4.14 | 2.87 | 18.7 | 18.4 | 19 | 3.29
8 | CCCCCCCCC[C@@H]1C[C@@H]2CCC3C(C(=O)OCCCCNC(=O)OCc4ccccc4)=C(C)NC(=N1)N32 (stereo not given in full) | 6.11 | 7.34 | 16.9 | 3.83 | 11.2 | 13.7 | 9.82 | 10.3 | 21 | 4.44 | 21.3 | 7.76 | 17.7 | 12.2 | 11.1
9 | CC(C(O)c1ccccc1)[N+](=O)[O-] (stereo not given) | 34.4 | 27.7 | > 100 | 59.1 | 61.4 | 20.6 | 38.2 | > 100 | 35.5 | 47.5 | 52.6 | > 100 | 72 | 31.7 | 30.5
10 | CCCCCCCCCCOC1C(C(C)OCCCN(C)C)OC2OC3(CCCCC3)OC21 (stereo not given) | 28.1 | 31 | 20.1 | 12.6 | 32.7 | 31.7 | 30.3 | 31.4 | 31.2 | 17.4 | 27.5 | 33 | 38.6 | 35.5 | 29.3
11 | COC(=O)C1(Cc2ccc3c(c2)CCC3)Cc2cc3c(cc2C1=O)CCC3 (stereo not given) | > 46.4 | > 46.4 | > 46.4 | > 46.4 | > 46.4 | > 46.4 | 43 | > 46.4 | > 46.4 | 31.3 | > 46.4 | > 46.4 | > 46.4 | > 46.4 | 38.1
12 | CCN(CC)CCNC(=O)c1cc2cc(NC(=O)c3cc4cc(NC(=O)c5cc6cc([N+](=O)[O-])ccc6[nH]5)ccc4[nH]3)ccc2[nH]1 | > 100 | > 100 | > 100 | > 100 | > 100 | > 100 | > 100 | > 100 | > 100 | > 100 | > 100 | > 100 | > 100 | > 100 | > 100
13 | CCC(=O)n1c(=O)n(-c2ccc([N+](=O)[O-])cc2)c(=O)n1C(=O)CC | > 100 | > 100 | > 100 | > 100 | > 100 | > 100 | > 100 | > 100 | > 100 | > 100 | > 100 | > 100 | > 100 | > 100 | > 100
14 | OC1NC2CC3NC(O)C(O)NC3CC2NC1O (stereo not given) | > 100 | > 100 | > 100 | > 100 | > 100 | > 100 | > 100 | > 100 | > 100 | > 100 | > 100 | > 100 | > 100 | > 100 | > 100
15 | O=C1O[C@H](COC(=O)c2ccccc2)[C@@H](OC(=O)c2ccccc2)C=C1OC(=O)c1ccccc1 | 57.2 | 31.4 | > 100 | 57.4 | 34.8 | > 100 | 69.9 | 39.4 | > 100 | 71.8 | 48.7 | 34.3 | 75.7 | 69.3 | > 100
16 | O=C(O)[C@H]1NC[C@@H]2ON=C(Br)[C@@H]21 | > 100 | > 100 | > 100 | > 100 | > 100 | > 100 | > 100 | > 100 | > 100 | > 100 | > 100 | > 100 | > 100 | > 100 | > 100
17 | CS(=O)(=O)OC1CCN(C2(c3cccc(O)c3)CCCCC2)CC1 | > 100 | > 100 | > 100 | > 100 | > 100 | > 100 | > 100 | > 100 | > 100 | 49 | > 100 | > 100 | > 100 | > 100 | 39.7
18 | CC1=NN(c2cccc(Cl)c2)C2(C1)SCC(=O)N2c1nc2ccccc2s1 (stereo not given) | > 100 | 44.9 | 43.5 | 48.9 | 74.9 | 57.4 | 79.7 | 58.3 | > 100 | 38.6 | > 100 | > 100 | 74.1 | 57.7 | 38.5
19 | C[N+](C)(N)Cc1csc(-c2ccc(Cl)cc2)n1 | > 100 | > 100 | > 100 | > 100 | > 100 | > 100 | > 100 | > 100 | > 100 | > 100 | > 100 | > 100 | > 100 | > 100 | > 100
20 | S=C1NC2=C(COC/C2=C\c2ccccc2Cl)C(c2ccccc2Cl)N1 (stereo not given) | > 100 | > 100 | > 100 | > 100 | > 100 | > 100 | > 100 | > 100 | > 100 | > 100 | > 100 | > 100 | > 100 | > 100 | 89
21 | CC[C@@]1(O)C(=O)OCc2c1cc1n(c2=O)Cc2c-1nc1ccccc1c2/C=N\NC(=O)C(N)=O | 49.4 | 37.5 | > 26 | > 100 | 14.8 | 12 | > 100 | > 45.1 | 10.9 | > 100 | > 100 | > 100 | > 100 | > 100 | > 100
22 | COc1cc(C2c3cc4c(cc3OC(N3CCOCC3)C2C)OCO4)cc(OC)c1OC (stereo not given) | 47.7 | 1.22 | > 48.2 | > 54.3 | 10.4 | 55.2 | 0.549 | 52.8 | > 49.6 | > 23.7 | > 100 | > 100 | 63.9 | > 59.7 | 4.35
23 | Nc1ccc(S(=O)(=O)c2ccc(N=[N+]([O-])c3ccc(S(=O)(=O)c4ccc(N)cc4)cc3)cc2)cc1 | > 100 | 57.8 | 37.1 | > 100 | > 100 | > 100 | > 100 | > 54.3 | > 100 | > 100 | > 62.6 | > 100 | > 88 | > 100 | > 100
24 | CN(C)Cc1cc(C(=O)/C=C/c2c(F)cccc2Cl)cc(CN(C)C)c1O | 19 | 12.6 | 21.8 | 26.8 | 25.4 | 18.7 | 38.2 | 26.7 | 21.3 | 49.6 | 31 | 28.7 | 15.7 | 24.6 | 27
